The text below walks through data of paper PMC4099323, “Inhibition of Catalase by Tea Catechins in Free and Cellular State: A Biophysical Approach” (PLoS ONE, 2014).

Experiment [1] has as its target T1, Catalase (from bovine liver) (Bos taurus, UniProt P00432).
T1 construct: Catalase (from bovine liver); purchased Sigma-Aldrich, St. Louis, MO, USA; host or cells: bovine liver
T1 sequence (P00432 2-527 limits assumed): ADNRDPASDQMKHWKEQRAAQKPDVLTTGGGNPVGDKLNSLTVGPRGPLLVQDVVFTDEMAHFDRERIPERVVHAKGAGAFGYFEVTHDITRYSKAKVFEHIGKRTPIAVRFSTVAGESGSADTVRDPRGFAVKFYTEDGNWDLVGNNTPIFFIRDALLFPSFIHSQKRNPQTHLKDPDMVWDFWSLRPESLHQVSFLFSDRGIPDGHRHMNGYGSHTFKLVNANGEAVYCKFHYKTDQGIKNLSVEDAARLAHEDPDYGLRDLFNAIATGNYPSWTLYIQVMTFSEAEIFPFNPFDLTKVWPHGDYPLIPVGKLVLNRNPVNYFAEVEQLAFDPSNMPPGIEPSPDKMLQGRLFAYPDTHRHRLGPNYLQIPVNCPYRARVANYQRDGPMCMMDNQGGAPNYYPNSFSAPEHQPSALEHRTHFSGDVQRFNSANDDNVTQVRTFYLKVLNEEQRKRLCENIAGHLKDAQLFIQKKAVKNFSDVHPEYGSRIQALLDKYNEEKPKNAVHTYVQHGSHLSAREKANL
Nature of the experiment: Fluorimetric titration: quenching of catalase fluorescence by catechins. It is filed as binding. The following applies: double logarithmic plot, 25°C; for Kd: pH 7.4, λex 280 nm, read-out: binding constant K with catalase (fluorimetric) (converted). The protocol:
Fluorescence spectra were recorded using a Perkin Elmer fluorescence spectrophotometer (LS-55) equipped with 150 W Xenon flash lamp and using fluorescence-free quartz cell of 1 cm path length. The widths of excitation and emission slits were set to 5 nm, and scan speed (100 nm/min), excitation voltage were kept constant for each data set. Quantitative analysis of the potential interaction between catechins and catalase was performed by the fluorimetric titration technique. Briefly, solution of catalase (5×10^−7 M, as calculated using molar extinction coefficient of 3.24×10^5 M^−1 s^−1 at 405 nm for catalase) in 50 mM phosphate buffer of pH 7.4 was titrated in cuvette by successive additions of individual catechin solution aliquots from a stock of 5×10^−7 M. Fluorescence emission spectra were recorded in the wavelength range of 290–450 nm upon excitation at 280 nm when catalase samples were titrated with catechins. All experiments were carried out at room temperature. Fluorescence intensity was measured at 340 nm of protein emission spectra. Fluorescence spectra of individual catechins in buffer were recorded as blanks under the same experimental conditions and subtracted from the corresponding sample to correct the fluorescence background.
The binding constants and the number of binding sites involved were calculated according to the relation: log (F0–F)/F = log K+n log [Q], where K is the binding constant and n is the number of binding sites, F0 is the fluorescence intensity of free catalase, F is the consecutive fluorescence on addition of catechins, and [Q] is the concentration of the quencher (here catechins). A plot of log (F0– F)/F and log [Q] was used to determine the values of K and n from the intercept and the slope respectively (Figure 3 A–D).

Experiment [2] has as its target T1, Catalase (from bovine liver). Nature of the experiment: Circular dichroism: catechin-induced conformational change in catalase. The following applies: catalase 1 µM, ligands 3 µM each, 25°C. The protocol:
All the CD experiments were carried out on a Jasco-815 automatic spectropolarimeter (Jasco International Co., Ltd. Hachioji, Japan) equipped with a peltier cuvette holder and temperature controller PFD425 L/15. The catalase concentration and path length of the cuvette used were 1 µM and 0.1 cm, respectively. The instrument parameters were set at scanning speed of 50 nm/min, bandwidth of 1.0 nm and sensitivity of 100 milli degree. The molar ellipticity values are expressed in terms of mean residue molar ellipticity, in units of deg. cm^2 dmol^−1.
CD allows investigation of the conformational changes that occur in a protein upon ligand binding. The CD spectra of catalase at pH 7.4 in the absence and in the presence of EGC, EC, ECG, EGCG, and 3-AT at 25°C are represented in Figure 5 (a – f). […] The negative band at 208 and 220 nm decreased in intensity with the addition of various catechins, which is indicative of the loss of α-helicity upon interaction. […] From the CD spectra, the effect of catechins on the secondary structure of catalase is in the following order: 3-AT>EGCG>ECG>EC>EGC.
On the technique in general: Circular dichroism is widely used to follow secondary structure.

The target is the same in experiment [3]. Nature of the experiment: Isothermal titration calorimetry of catechins binding to catalase. Conditions: 25°C; for ΔG / ΔH / ΔS: ITC; for ΔG: calculated from the average values of ΔH; for ΔH / ΔS: directly extracted from the experiment; for Kd: one-site binding model, from ΔG = −RT ln K, read-out: binding constant with catalase (ITC) (converted). The protocol: The energetics of the binding of catechins to catalase was studied by ITC using a MicroCal ITC200, (Northampton, MA, USA). All solutions were degassed under vacuum (140 mbar, 10 min) on the MicroCal’s Thermovac unit to eliminate air bubble formation inside the calorimeter cell. Briefly, the calorimeter syringe was filled with a concentrated solution of catechins (10 µM each). Successive injections of this solution into 1 µM solution of catalase in the calorimeter cell were effected from the rotating syringe with constant stirring of the solution. The titration and analysis were performed through Origin 7 software provided with the unit.
ITC directly measures the heat released during a chemical reaction. ITC can reveal the stoichiometry, enthalpy free energy, and entropy changes that occur over the course of a reaction, [46]. Data obtained from the titration are presented by the series of peaks corresponding to each injection. Usually, this representation is transformed into the apparent heat change between two injections as a function of the titrant ratio by means of integration of power differential with regard to time. ITC has been used mainly to quantify interactions in various biochemical systems [47]–[49]. ITC has been used in the present study to determine binding affinity and other thermodynamic parameters of catechins-catalase interaction. Representative isothermal calorimetric heat profiles for the binding of catechins-catalase interaction, at physiological pH and 25°C are shown in Figure 4 (A–D). The data were corrected for the heat of dilution of catechins, which was determined in a separate set of experiments under identical conditions. The titration and analysis were performed using one-site binding model through Origin 7 software provided with the unit. From Figure 4 it is observed that the titration of catalase with all the four catechins yield negative heat deflections. EC, EGC, ECG, and EGCG bind to catalase with binding constants 2.13×10^5, 1.92×10^5, 6.36×10^5, and 8.19×10^5 M^−1, respectively, as determined by the following equation: ΔG = −RT ln K, where ΔG is the free energy, R and T are the gas constant and temperature, respectively, K is the binding constant.

For experiment [4] the target is unchanged. The experiment is described as follows: Inhibition of pure catalase activity (cell free), H2O2 decay at 240 nm. The following applies: pure catalase, 50 µM each, 1 h incubation. In kind it is biochemical. The protocol:
Absorption spectrophotometer (Varian, CARY 100 Bio, USA) was used to determine pure catalase activity (cell free). Briefly, 900 µl of H2O2 (0.036%) was taken in quartz cell of 1 cm path length and its absorbance was recorded at 240 nm. To the solution, 100 µl of catalase (50 U/ml) was added and the decrease in absorbance was recorded at 10 s interval. This experiment was performed in presence 50 µM each of four catechins and 3-AT separately to evaluate the inhibitory effect of catechins on catalase activity, after 1 h incubation.
On addition of catechins, a decrease in rate of H2O2 degradation i.e. a decrease in pure catalase activity was observed which is represented in Figure 6A. Catechins with galloyl moiety (ECG and EGCG) reduced catalase activity more than its non-gallated counterparts i.e. EGC and EC. However, Inhibition by EGCG is the closest to inhibition by known catalase inhibitor 3-AT.

Experiment [5] addresses human dihydrofolate reductase (DHFR). The arrangement: method as in PMID 20054477. Conditions: fluorescence quenching; cited from earlier work.
Experiment [6] has as its system K562 cells. Nature of the experiment: MTT cell viability assay. In kind it is cell-based. The following applies: Homo sapiens. The protocol:
Cell viability of K562 cells was quantified by MTT based colorimetric assay as described elsewhere. Briefly, cells were rinsed with PBS and 0.5 mg/ml MTT was added into each sample. The mixture was incubated at 37°C for an additional 3 h. At the end of incubation period, the medium containing MTT was removed and the pellet was dissolved in 200 µl DMSO. Absorbance was measured at a wavelength of 570 nm. Cell viability was expressed as a percentage of the control culture.
The concentration (IC50) at which the K562 cell survivability was reduced to 50% was calculated for EGCG and 3-AT by MTT based cell viability assay.
(Tetrazolium assays rely on reduction of a dye to a coloured formazan, in cell work by metabolically active cells.)

In experiment [7] the test system is catalase. Conditions: cited from earlier work.

Broadly, the IC50 is the concentration that gives 50% inhibition. A high value points to lower potency.

As to `O=C(OC1Cc2c(O)cc(O)cc2OC1c1ccc(O)c(O)c1)c1cc(O)c(O)c(O)c1` (single isomer, unassigned; (-)) [ECG, (−)-epicatechin gallate], in experiment [1], the “number of binding sites n” value was “single binding site” and the Kd is 0.602 µM. Also, the “order of effect on the secondary structure of catalase (loss of α-helicity)” value (from here on “order of effect … (loss of α-helicity)”) in experiment [2] was 3-AT>EGCG>ECG>EC>EGC. In experiment [3], the ΔG is -7.8 kcal/mol, the ΔH was -756 ± 30.2 kcal/mol, the ΔS is reported as −2.60×10^3 cal/mol/K and the Kd is 1.57 µM. In experiment [4], the “order of inhibition of catalase activity” value was 3-AT>EGCG>ECG>EC>EGC. The Kd in experiment [5] is 1.8 µM.
For `Nc1nc[nH]n1` [3-AT, 3-amino-1,2,4-triazole, reference compound], the “order of effect … (loss of α-helicity)” value in experiment [2] is recorded as 3-AT>EGCG>ECG>EC>EGC. In addition, in experiment [6], the IC50 came to 10.5 µM. In experiment [4], the “order of inhibition of catalase activity” value was 3-AT>EGCG>ECG>EC>EGC.
`Oc1cc(O)c2c(c1)O[C@H](c1ccc(O)c(O)c1)[C@H](O)C2` [EC, (−)-epicatechin]: in experiment [1], the “number of binding sites n” value is given as “single binding site” and the Kd was 9.26 µM. Also, the “order of effect … (loss of α-helicity)” value in experiment [2] is reported as 3-AT>EGCG>ECG>EC>EGC. In experiment [3], the ΔG was -7.17 kcal/mol, the ΔS was −2.40×10^7 cal/mol/K and the Kd was 4.69 µM. Moreover, the “order of inhibition of catalase activity” value in experiment [4] is 3-AT>EGCG>ECG>EC>EGC. Also, the “binding to DHFR” value in experiment [5] is “did not bind”.
As to `Oc1cc(O)c2c(c1)OC(c1cc(O)c(O)c(O)c1)C(O)C2` (single isomer, unassigned; (-)) [EGC, (−)-epigallocatechin], in experiment [1], the “number of binding sites n” value is reported as “single binding site” and the Kd was 12.7 µM. The “order of effect … (loss of α-helicity)” value in experiment [2] is recorded as 3-AT>EGCG>ECG>EC>EGC. Moreover, in experiment [3], the ΔG was -7.1 kcal/mol, the ΔH was -3.2e+06 ± 106000 kcal/mol, the ΔS is listed as −1.07×10^7 cal/mol/K and the Kd is 5.21 µM. Also, the “order of inhibition of catalase activity” value in experiment [4] is 3-AT>EGCG>ECG>EC>EGC. Also, the “binding to DHFR” value in experiment [5] is recorded as “did not bind”.
As to microcystin, in experiment [7], the “binding constant of catalase-microcystin complex” value is 61200 M⁻¹.
